{
  "source": "patent US10945966B2",
  "about": "“PEGylated lipid nanoparticle with bioactive lipophilic compound” (Eyesiu Medicines B.V., priority 2015, dated 2021)",
  "test_system": "imiquimod (IMQ)-induced psoriasis-like skin inflammation",
  "assay": "Imiquimod (IMQ)-induced psoriasis-like skin inflammation",
  "type": "in vivo, mice",
  "settings": "daily topical",
  "protocol": "A nanoparticle composition comprising the macrolide tacrolimus was produced as detailed in Example 2. The resulting composition was formulated in a spray suitable for topical delivery on the skin. The efficacy of the produced nanoparticles was subsequently tested in an imiquimod (IMQ)-induced psoriasis-like skin inflammation in mice. To this end, psoriasis-like skin inflammation was induced on the ears and shaved backs of the mice by the daily application of 50 mg of 5% Imiquimod (IMQ) cream. Compared to naïve mice, animals treated with IMQ developed clinical signs of disease including statistically significant increases in psoriasis clinical score and ear thickness over time as well as increased spleen weight (splenomegaly) upon termination of the experiment.",
  "data": [
    {"smiles": "C[C@H]1C[C@H]2[C@@H]3CCC4=CC(=O)C=C[C@]4(C)[C@@]3(F)[C@@H](O)C[C@]2(C)[C@@]1(O)C(=O)CCl", "note": "[Clobetasol]", "values": [
      {"measurement": "body weight", "setting": "unwanted side effect", "value": "significant reduction"},
      {"measurement": "spleen weight", "setting": "compared to IMQ-only treated mice", "value": "significantly reduced"},
      {"measurement": "psoriasis clinical score", "setting": "compared to IMQ-only treated mice, significant by day 3 and throughout the rest of the study", "value": "significantly reduced"},
      {"measurement": "ear thickness", "setting": "compared to IMQ-only treated mice, significant by day 5 and throughout the rest of the study", "value": "significantly reduced"}
    ]}
  ]
}
